Results as given in a melting point compilation (Tetko et al.; mined from patent text by program, amines drawn as free bases though some values may be those of a salt).

| melting point | SMILES |
| --- | --- |
| 139 to 141 °C | O=C1CC2CCC1C(Nc1ccc(Cl)cc1)C21CCCCC1 (stereo not given) |
| 147 to 148 °C | CCOC(=O)c1sc(SC)c2c1CCC(Br)C2=O (stereo not given) |
| 81 to 82 °C | CCOC(=O)c1conc1-c1ccc(-c2ccccc2)cc1 |
| 137 to 140 °C | CCC1c2cc3c(cc2C(C=Cc2ccc(NC(C)=O)cc2)=NN(C(C)=O)C1C)OCO3 (stereo not given) |
| 117 to 119 °C | O=C(CCc1ccccc1)Nc1ccc([N+](=O)[O-])cc1 |
| 203 to 204 °C | COc1cccc(C(=O)Nc2ccc3c(c2)CCC3=O)c1 |
| 164 to 165 °C | Cn1cc(C(=O)Nc2ccccc2-c2ccc(C(F)(F)F)cc2)c(C(F)F)n1 |
| 218 to 220 °C | O=C(c1ccc(F)cc1)c1ccc(C(=O)c2ccc(F)cc2)cc1 |
| 252 to 254 °C | N#Cc1cccc2c1S(=O)(=O)c1ccccc1C2=O |
| 242 to 249 °C | Nc1nc2ccc(S(=O)(=O)n3c(CCC(=O)O)cc4cc(Cl)ccc43)cc2o1 |
| > 280 °C | CCCn1c(=O)c2c(nc(C=Cc3cc(C)c(C)cc3S(=O)(=O)O)n2C)n(CCC)c1=O |
| 128 °C | Cc1coc(NC(=O)C2=C(O)c3c(c4ccccc4n3C)S(=O)(=O)N2C)n1 |
| 168 to 170 °C | CCOC(=O)c1cnc2nn(C)cc2c1NC(C)C |
| 253 to 256 °C | C[C@@H](Nc1ncnc2[nH]c(-c3ccc(CN)cc3)cc12)c1ccccc1 |
| 191 to 193 °C | COc1ccc2cc(-c3csc(-c4ccccc4)n3)ccc2c1 |
| 145 to 148 °C | CCCc1nc2c(N)nc3cc(OCCc4ccc(F)cc4)ccc3c2s1 |
| 125 to 126 °C | CCCOc1ccc2c(c1)C(=O)C(C(=O)OC)=C2c1ccc2c(c1)OCO2 |
| 218 to 220 °C | O=C(O)C1CCc2c(c3cc(F)ccc3n2C(=O)c2ccccc2)C1 (stereo not given) |
| 150 °C | c1ccc(-c2cc(-c3ccc4c(c3)OCO4)cc(OCCCCCc3nnn[nH]3)n2)cc1 |
| 85 to 88 °C | O=C1CC[C@H](CC(c2ccc(S(=O)(=O)C3CC3)cc2)c2nc(F)c(C(=O)C3CCC3)[nH]2)C1 (stereo not given in full) |
| 213 to 216 °C | O=C(Cn1c(-c2ccc(Cl)cc2)nc2cccnc21)N1CCOCC1 |
| 45 to 46 °C | CCOC(=O)COc1ccc([N+](=O)[O-])cc1C(F)(F)F |
| 180 to 182 °C | CN(C)c1cccc2c(S(=O)(=O)Nc3cnc(Br)c(Cl)n3)cccc12 |
| 195 to 196 °C | O=C(Nc1ccc(Cl)c(Cl)c1)NS(=O)(=O)c1ccc(Cl)cc1 |
| 138 to 140 °C | O=Cc1cccc2cncn12 |
| 140 to 142 °C | OCCCN1CCC(c2noc3cc(F)ccc23)CC1 |
| 95 °C | COc1cc2c(cc1OC)C(c1ccc(SC(F)(F)F)cc1)CNCC2 (stereo not given) |

| melting point | SMILES |
| --- | --- |
| 119 to 121 °C | COCCOc1ccc(/C=C/CO)c(Oc2ncc(C(F)(F)F)cc2Cl)c1 |
| 225 to 226 °C | CNC(=O)c1cc2c(Oc3ccc(/C=C/C(=O)NCC(O)CO)cc3)cncc2s1 (stereo not given) |
| 153 to 154 °C | Fc1ccc(C(=C2SCSCS2)c2ccc(F)cc2)cc1 |
| 68 to 69 °C | C#CCOc1ccc(C=NOC)cc1OC |
| 196 to 197 °C | O=C(/C=C/c1ccc(S(=O)(=O)N2CCN(c3ccccc3F)CC2)cc1)NO |
| 180 °C | COc1ccc(S(=O)(=O)C2(C(=O)NO)CCN(Cc3ccc(Br)cc3)CC2)cc1 |
| 114 to 115 °C | Cc1oc(-c2ccccc2)nc1COc1cccc(CON=C(CCCCC(=O)O)c2ccccc2)c1 |
| 160 °C | CSc1ccc(C(=O)c2cc(-c3ccc(S(C)(=O)=O)cc3)c(N3CCOCC3)s2)cc1 |
| 113 to 117 °C | CC(C)(C)OC(=O)N1[C@@H](C(=O)O)CC[C@H]1c1ccccc1 (racemic) |
| 112 to 115 °C | CCc1c(C(=O)NN2CCCCC2)nn(-c2ccc(Cl)cc2Cl)c1-c1ccc(Br)cc1 |
| > 300 °C | Cc1nn(C)c2c1c(=O)n(-c1ccccc1)c1ncccc21 |
| 129 to 131 °C | C#CCOc1ccc(Cc2nnc(Cl)c3ccccc23)cc1 |
| 171 to 178 °C | COc1ccc(-c2cc3ncnc(Nc4ccc5[nH]ccc5c4)c3s2)cc1OC |
| 103 to 105 °C | CS(=O)(=O)c1c(F)nc(F)nc1F |
| 179 to 180 °C | COc1ccc(C(=O)c2c(Cl)cc(Cl)cc2Cl)cc1Cc1ccc(=O)[nH]n1 |
| 170 °C | Cc1nc2cc(C(O)(c3ccc(Cl)cc3)c3cncn3C)cc3c(-c4cccc(Cl)c4)cc(=O)n1c23 (stereo not given) |
| 187 to 198 °C | CC(C)C1(C)N=C(c2ncc(C=O)cc2C(=O)O)NC1=O (stereo not given) |
| 110 to 111 °C | O=C(O)C=CCCCCCc1cccc2cncn12 |
| 188 to 190 °C | O=[N+]([O-])c1ccc2c(c1)C=C(N1CCN(Cc3ccc4c(c3)OCO4)CC1)c1ccccc1S2 |
| 160 to 162 °C | CCC(Oc1ccccc1Br)C(=O)OC1CC(O)C=C2C=CC(C)C(CCC3CC(O)CC(=O)O3)C21 (mixture of isomers) |
| 258 to 260 °C | N#CNC(=S)Nc1cccc(Cl)c1 |
| 156 to 158 °C | CC(c1ccc(OCC(=O)Nc2ccc(-c3ccc(Cl)cc3)cc2)cc1)N1CCCC1 (stereo not given) |
| 225 to 226 °C | CC(C)(C)c1ccc(S(=O)(=O)Nc2cc(Cl)ncn2)cc1 |
| 172 to 174 °C | COc1ccc(C(=O)Nc2ccccc2)cc1NC(=S)Nc1ccccc1C |
| 188 to 190 °C | COc1ccccc1[C@@]1(O)[C@H](O)CC(c2ccccc2)(c2ccccc2)[C@@H]2CN(C(=O)Cc3cccc4ccccc34)C[C@@H]21 (racemic) |
| 117 °C | O=C(/C=C/c1cccc(S(=O)(=O)N2CCN(CC(c3ccccc3)c3ccccc3)CC2)c1)NO |
| 235 to 237 °C | COC(=O)c1ccc(Cn2c(=O)c(-c3c(Cl)cccc3Cl)cc3cnc(N)nc32)cc1 |

Continued, compound first:

| SMILES | melting point |
| --- | --- |
| CC(=O)Nc1nc(NC(C)=O)nc(-c2ccc(-c3ccccc3)cc2)n1 | > 260 °C |
| CC1(C)Oc2ccc(C#N)cc2[C@@H](NC(=O)Nc2cccc(-c3cnc[nH]3)c2)[C@@H]1O | 170 to 180 °C |
| CCOC(=O)c1cn(-c2nc(OC)c(F)cc2F)c2c(Cl)c(F)c(F)cc2c1=O | 140 to 143 °C |
| CC1(C)CCCCc2ccc(C(=O)O)cc21 | 155 to 156 °C |
| CN(Cc1cc2c3c(c1)c(=O)c(C(=O)NCc1ccc(F)cc1)cn3CC(=O)N2C)C[C@@H](O)c1ccsc1 | 150 to 152 °C |
| COC(=O)c1ccnc(NC(=O)C(C)CSC(C)=O)c1 (stereo not given) | 105 to 106 °C |
| CCn1c(C)c(C(=O)c2ccc(C)c3ccccc23)c2ccccc21 | 136 to 137 °C |
| CSc1ccc(C(CC2CCCO2)C(=O)O)cc1Cl (stereo not given) | 93 to 96 °C |
| NC(=O)C(=O)c1ccccc1CCl | 105 to 107 °C |
| Cc1cc(C)c2c(c1Br)CCC2=O | 103 °C |
| CCN1C(=O)C(C(=O)Nc2cccc(C(=O)Nc3ccccc3)c2)c2cc(C(=O)c3ccccc3)ccc21 (stereo not given) | 129 to 135 °C |
| CC1(C)CC(=O)C(C(=S)Nc2ccc(Cl)c(Cl)c2)C(=O)C1 | 113 to 116 °C |
| N#C[C@@H]1CCC[C@H]2OC[C@@H](c3ccccc3)N12 | 81 °C |
| O=C1CCC(C(=O)O)C1 (stereo not given) | 59 to 60.5 °C |
| Fc1ccc(-c2ccn(CC3CCNCC3)c2-c2ccncc2)cc1 | 174 to 176 °C |
| Cc1cccc(-c2[nH]c(C(C)C)nc2-c2cccc(-c3ccc(S(=O)(=O)N4CCOCC4)cc3)c2)n1 | 88 to 92 °C |
| O=C(CN1CCCC1)c1ccc(F)cc1 | 49 to 50 °C |
| O=S(=O)(Cl)c1ccc2oc(-c3ccncc3)cc2c1 | 210 °C |
| CCCCc1oc2ccccc2c1C(=O)c1nc(Br)c(-c2ccc(OC)cc2)o1 | 62 to 64 °C |
| Cc1cc(C#N)cc(C)c1C(=O)CBr | 76 °C |
| CCCOc1ccc2c(c1)C(=O)C=C2c1ccc2c(c1)OCO2 | 90 to 93 °C |
| O=C(O)CCCCCc1c(OCc2ccccc2)ccc2cncn12 | 139 to 141 °C |
| Oc1nc2cc(Cl)c3nc(C(F)(F)F)[nH]c3c2nc1O | > 300 °C |

| SMILES | melting point |
| --- | --- |
| CCOC(=O)NN=Cc1c[nH]c(C(C)(C)C)n1 | 194 to 197 °C |
| CSC1=Nc2ccccc2N2CCN(c3ccccc3)CCN12 | 125 to 127 °C |
| CC(C)(C)Nc1cc(N2CCNCC2)nc(NC(C)(C)C)n1 | 142 to 145 °C |
| Cc1cc2c(nc1C(O)c1ccccc1)CCCCC2 (stereo not given) | 130 to 132 °C |
| O=Cc1ccc(F)cc1-c1noc2ccc(F)cc12 | 165 to 166 °C |
| COc1ccc2c(c1)c(=O)c(CO)cn2C | 194 to 197 °C |
| COc1ccc(C(=O)c2cccc(C(F)(F)F)c2F)c(OC)c1 | 79 to 82 °C |
| CCOC(=O)C1(O)c2ccccc2S(=O)(=O)N1C(C)(C)C (stereo not given) | 93 to 95 °C |
| Cc1cc(-c2nc(-c3cccs3)c[nH]2)ccc1O | 167 to 172 °C |
| CCOCc1cc(OC)c(-c2ccc(C[C@H](NC(=O)c3c(F)cccc3F)C(=O)O)cc2)c(OC)c1 | 154 to 155 °C |
| CCOC(=O)C(=O)c1cn(Cc2ccc(C(C)(C)C)cc2)c2cc(-c3ccc(OC(F)(F)F)cc3)ccc12 | 146 to 147 °C |
| CC(C)(C)c1cc(-c2c[nH]c(=S)[nH]2)cc(C(C)(C)C)c1O | 168 to 170 °C |
| Cc1nc(-n2cnn(Cc3ccc(F)cc3)c2=O)sc1C(=O)NCc1cnn(C)c1 | 205 to 206 °C |
| COC(=O)c1cc(C(O)(C(F)(F)F)C(F)(F)F)ccc1NS(C)(=O)=O | 147 to 148 °C |
| Cc1[nH]c(=O)ccc1C#N | > 300 °C |
| OC1Cn2ccnc2C(=C2CCN(CCc3ccc(OCc4ccc5ccccc5n4)cc3)CC2)c2ccsc21 (stereo not given) | 242 °C |
| O=C(O)c1ccc2cc(-c3cc4ccccc4o3)ccn2c1=O | > 250 °C |
| CC(Oc1ccc(F)cc1F)(C(=O)Nc1nc(CC(=O)O)c(Cl)s1)c1ccc(S(C)(=O)=O)cc1 (stereo not given) | 109 to 111 °C |
| CC(C)CCCOc1c(-c2ccc(S(C)(=O)=O)cc2)cnn(-c2ccc(F)cc2)c1=O | 123 to 125 °C |
| O=C(Nc1cccc2c1C(=O)c1c-2n[nH]c1-c1ccc(C(=O)N2CCN(CC3CC3)CC2)s1)NN1CCOCC1 | 211 to 212 °C |
| CC(C)NCCCOc1ccc(N)cc1Cc1ccccc1 | 41.1 °C |
| N=C(N)Nc1ncc(CO)s1 | 168 to 170 °C |
| CC(C)(C)OC(=O)N1CCC(COc2ccc(N)cc2)CC1 | 100 to 101 °C |
